In patent US20210253575A1, “PYRROLIDINE AMINE COMPOUNDS FOR THE TREATMENT OF AUTOIMMUNE DISEASE” (Hoffmann-La Roche Inc., priority 2018, published 2021) one finds IC50 data, which are given here for 5 compounds.

The experiment deals with T1, human TLR7 (Homo sapiens, UniProt Q9NYK1).
T1 sequence (Q9NYK1 27-1049): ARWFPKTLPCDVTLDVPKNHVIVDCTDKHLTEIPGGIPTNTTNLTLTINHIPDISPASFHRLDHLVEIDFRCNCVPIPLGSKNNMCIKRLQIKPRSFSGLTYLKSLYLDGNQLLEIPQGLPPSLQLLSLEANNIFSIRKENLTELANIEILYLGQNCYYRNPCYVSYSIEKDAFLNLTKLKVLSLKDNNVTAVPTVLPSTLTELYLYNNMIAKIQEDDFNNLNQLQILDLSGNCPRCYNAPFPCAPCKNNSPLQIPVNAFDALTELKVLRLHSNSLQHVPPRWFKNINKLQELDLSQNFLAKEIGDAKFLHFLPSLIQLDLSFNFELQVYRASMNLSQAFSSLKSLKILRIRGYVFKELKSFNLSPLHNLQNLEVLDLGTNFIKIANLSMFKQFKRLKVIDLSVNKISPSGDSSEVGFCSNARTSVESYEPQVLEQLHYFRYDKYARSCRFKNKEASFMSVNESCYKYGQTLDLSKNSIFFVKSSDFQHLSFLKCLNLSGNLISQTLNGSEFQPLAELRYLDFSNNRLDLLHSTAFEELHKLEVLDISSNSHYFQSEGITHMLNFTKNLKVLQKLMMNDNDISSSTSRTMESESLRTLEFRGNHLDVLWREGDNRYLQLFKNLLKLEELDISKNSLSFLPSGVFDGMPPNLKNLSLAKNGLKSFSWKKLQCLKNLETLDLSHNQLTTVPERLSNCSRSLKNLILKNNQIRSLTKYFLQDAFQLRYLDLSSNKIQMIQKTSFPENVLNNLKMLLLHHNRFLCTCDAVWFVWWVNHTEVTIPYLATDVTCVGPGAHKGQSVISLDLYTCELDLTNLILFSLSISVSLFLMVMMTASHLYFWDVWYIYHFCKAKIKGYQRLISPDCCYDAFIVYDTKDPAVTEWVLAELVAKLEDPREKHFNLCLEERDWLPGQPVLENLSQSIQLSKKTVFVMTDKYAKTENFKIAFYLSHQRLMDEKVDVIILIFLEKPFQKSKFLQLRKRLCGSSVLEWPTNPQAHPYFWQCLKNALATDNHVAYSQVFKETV
Description: HEK293-Blue-hTLR-7 cells assay (SEAP reporter, R848 stimulation). It counts as cell-based. As to conditions: HEK293-Blue-hTLR7 cells, R848 ligand, 20 hrs incubation. The method in brief: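 Antagonism measured in stable HEK293-Blue-hTLR7 cells carrying an NF-κB/AP-1-driven SEAP reporter, stimulated with R848 (10 µL of 20 µM stock) with serially diluted compound, 1% DMSO, 20 h at 37 °C. Supernatant SEAP read with QUANTI-Blue after 2 h at 37 °C, absorbance 620–655 nm.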
The compound `N#Cc1ccc(N2CC(CN3CCNCC3)C3(CC3)C2)c2nccnc12` (centres unmarked) [Example 3, 8-[7-(piperazin-1-ylmethyl)-5-azaspiro[2.4]heptan-5-yl]quinoxaline-5-carbonitrile] returned an IC50 of 27 nM.

On to `CN1CCC2(CCN(C[C@H]3CN(c4ccc(C#N)c5nccnc45)C[C@@H]3C(F)(F)F)C2)C1` (stereo partly drawn) [Example 84, 8-[(3S,4R)-3-[(7-methyl-2,7-diazaspiro[4.4]nonan-2-yl)methyl]-4-(trifluoromethyl)pyrrolidin-1-yl]quinoxaline-5-carbonitrile], for which 48 nM corresponded to half-maximal inhibition (IC50). The result for `N#Cc1ccc(N2CC(CN3CC4CCC(C3)C4N)C3(CC3)C2)c2nccnc12` (centres unmarked) [Example 4, 8-[7-[(8-Amino-3-azabicyclo[3.2.1]octan-3-yl)methyl]-5-azaspiro[2.4]heptan-5-yl]quinoxaline-5-carbonitrile] reads 28 nM; that for `CC1(CN)CCN(C[C@H]2CN(c3ccc(C#N)c4nccnc34)C[C@@H]2C(F)(F)F)C1` (stereo partly drawn) [Example 85, 8-[(3S,4R)-3-[[3-(aminomethyl)-3-methyl-pyrrolidin-1-yl]methyl]-4-(trifluoromethyl)pyrrolidin-1-yl]quinoxaline-5-carbonitrile], 83 nM; that for `CN(C)[C@@H]1CCN(C[C@H]2CN(c3ccc(C#N)c4nccnc34)C[C@@H]2C(F)(F)F)C1` [Example 83, 8-[(3S,4R)-3-[[(3R)-3-(dimethylamino)pyrrolidin-1-yl]methyl]-4-(trifluoromethyl)pyrrolidin-1-yl]quinoxaline-5-carbonitrile], 25 nM.
